Source: the supplement of paper PMC11061612

How the values were obtained:
Experiment in all cases: combination Emax (second highest fraction inhibited in the dose matrix, 72 h); higher = more inhibition; extreme values may be limits of the assay
[1] = system: HARA (Squamous Cell Lung Carcinoma)
Outline: (§1)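 After 24 hours at 37°C and 5% CO2 in 1536-well plates, cells in DMEM/F12 or RPMI plus 10% FBS received two-drug dose matrices for 72 hours. Viability came from CellTiter-Glo 2.0 luminescence and was scaled as inhibition, anchored at 0 by vehicle wells and at 1 by blank wells. Combination Emax is taken as the second-highest inhibition in the matrix, and Bliss excess as the observed combination effect less EA + EB − EA·EB, with EA and EB the single-agent effects.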

[2] = system: HCC-15 (Squamous Cell Lung Carcinoma)
Outline: as §1

[3] = system: 639-V (Bladder Carcinoma)
Outline: as §1

[4] = system: PCI-30 (Head and Neck Carcinoma)
Outline: as §1

[5] = system: 8305C (Thyroid Gland Carcinoma)
Outline: as §1

NCI-H2461 (Mesothelioma) = system: NCI-H2461 (Mesothelioma)
Outline: as §1

[6] = system: RPMI-6666 (Non-Cancerous)
Outline: as §1

[7] = system: UMC-11 (Other Solid Carcinomas)
Outline: as §1

[8] = system: SU-DHL-6 (B-Cell Non-Hodgkin's Lymphoma)
Outline: as §1

[9] = system: EN (Endometrial Carcinoma)
Outline: as §1

[10] = system: CAL-51 (Breast Carcinoma)
Outline: as §1

NCI-H2795 (Mesothelioma) = system: NCI-H2795 (Mesothelioma)
Outline: as §1

[11] = system: NCI-H69 (Small Cell Lung Carcinoma)
Outline: as §1

NB14 (Neuroblastoma) = system: NB14 (Neuroblastoma)
Outline: as §1

[12] = system: NCI-H747 (Colorectal Carcinoma)
Outline: as §1

[13] = system: SW1271 (Small Cell Lung Carcinoma)
Outline: as §1

[14] = system: CAL-54 (Kidney Carcinoma)
Outline: as §1

[15] = system: RKO (Colorectal Carcinoma)
Outline: as §1

COLO-829 (Melanoma) = system: COLO-829 (Melanoma)
Outline: as §1

SH-4 (Melanoma) = system: SH-4 (Melanoma)
Outline: as §1

Row | SMILES | combination Emax [1] | combination Emax [2] | combination Emax [3] | combination Emax [4] | combination Emax [5] | combination Emax (NCI-H2461 (Mesothelioma)) | combination Emax [6] | combination Emax [7] | combination Emax [8] | combination Emax [9] | combination Emax [10] | combination Emax (NCI-H2795 (Mesothelioma)) | combination Emax [11] | combination Emax (NB14 (Neuroblastoma)) | combination Emax [12] | combination Emax [13] | combination Emax [14] | combination Emax [15] | combination Emax (COLO-829 (Melanoma)) | combination Emax (SH-4 (Melanoma))
1 | COc1cccc2c1C(=O)c1c(O)c3c(c(O)c1C2=O)C[C@@](O)(C(=O)CO)C[C@@H]3O[C@H]1C[C@H](N)[C@H](O)[C@H](C)O1 [Doxorubicin] + Cc1cc2ncnn2cc1Nc1ncc2c(n1)n(C1CCOCC1)c(=O)n2C [AZD7648] (first compound max 1 µM, 7x7, partner max 10 µM) | 0.808 | 0.284 | 0.98 | 0.721 | 0.876 | 0.867 | 0.971 | 0.613 | 0.989 | 0.735 | 0.936 | 0.709 | 0.747 | 0.887 | 0.743 | 0.768 | 0.802 | 0.91 | 0.73 | 0.588
2 | C=CCn1c(=O)c2cnc(Nc3ccc(N4CCN(C)CC4)cc3)nc2n1-c1cccc(C(C)(C)O)n1 [AZD1775] + C1CN(CCC1(C(=O)N[C@@H](CCO)C2=CC=C(C=C2)Cl)N)C3=NC=NC4=C3C=CN4 [Capivasertib] (first compound max 3 µM, partner max 3 µM) | 0.929 | 0.878 | 0.642 | 0.477 | 0.681 | 0.67 | 0.921 | 0.696 | 0.994 | 0.715 | 0.941 | 0.408 | 0.83 | 0.98 | 0.623 | 0.682 | 0.782 | 0.886 | 0.322 | 0.715
3 | COc1nnc2ccc(N3CCC(c4ccc(OCCN5CCN(C)C(=O)[C@H]5C)cc4)CC3)nn12 [AZD5153] + Cn1cnc2c(F)c(Nc3ccc(Br)cc3Cl)c(C(=O)NOCCO)cc21 [Selumetinib] (first compound max 1 µM, 7x7, partner max 10 µM) | 0.708 | 0.693 | 0.676 | 0.368 | 0.576 | 0.501 | 0.692 | 0.704 | 0.913 | 0.289 | 0.712 | 0.853 | 0.543 | 0.892 | 0.937 | 0.676 | 0.765 | 0.88 | 0.663 | 0.953
4 | C[C@@H](c1ccc2nccn2c1)n1nnc2ncc(-c3cnn(C)c3)nc21 [Savolitinib] + CC1(C)CCC(CN2CCN(c3ccc(C(=O)NS(=O)(=O)c4ccc(NCC5CCOCC5)c([N+](=O)[O-])c4)c(Oc4cnc5[nH]ccc5c4)c3)CC2)=C(c2ccc(Cl)cc2)C1 [Venetoclax] (first compound max 1 µM, 7x7, partner max 1 µM) | 0.122 | 0.175 | 0.121 | 0.143 | 0.217 | 0.301 | 0.243 | 0.13 | 0.465 | 0.238 | 0.113 | 0.22 | 0.372 | 0.114 | 0.181 | 0.161 | 0.143 | 0.166 | 0.209 | 0.139
5 | CN(C)CCCOc1ccc(-c2ccc3ncc4c(c3c2)n(C2CCOCC2)c(=O)n4C)cn1 [AZD0156] + O=C(c1cc(Cc2n[nH]c(=O)c3ccccc23)ccc1F)N1CCN(C(=O)C2CC2)CC1 [Olaparib] (first compound max 3 µM, partner max 3 µM) | 0.411 | 0.371 | 0.443 | 0.234 | 0.441 | 0.292 | 0.458 | 0.246 | 0.729 | 0.227 | 0.296 | 0.384 | 0.354 | 0.611 | 0.339 | 0.351 | 0.369 | 0.284 | 0.0677 | 0.327
6 | CC1(C)CCC(CN2CCN(c3ccc(C(=O)NS(=O)(=O)c4ccc(NCC5CCOCC5)c([N+](=O)[O-])c4)c(Oc4cnc5[nH]ccc5c4)c3)CC2)=C(c2ccc(Cl)cc2)C1 [Venetoclax] + Cn1cnc2c(F)c(Nc3ccc(Br)cc3Cl)c(C(=O)NOCCO)cc21 [Selumetinib] (first compound max 1 µM, 7x7, partner max 3 µM) | 0.617 | 0.438 | 0.27 | 0.206 | 0.397 | 0.444 | 0.959 | 0.17 | 0.88 | 0.373 | 0.214 | 0.562 | 0.302 | 0.974 | 0.717 | 0.432 | 0.205 | 0.441 | 0.426 | 0.872
7 | C=CCn1c(=O)c2cnc(Nc3ccc(N4CCN(C)CC4)cc3)nc2n1-c1cccc(C(C)(C)O)n1 [AZD1775] + O=C(c1cc(Cc2n[nH]c(=O)c3ccccc23)ccc1F)N1CCN(C(=O)C2CC2)CC1 [Olaparib] (first compound max 1 µM, partner max 10 µM) | 0.743 | 0.31 | 0.333 | 0.374 | 0.506 | 0.649 |  | 0.438 | 0.85 | 0.531 | 0.811 | 0.57 | 0.478 | 0.986 | 0.501 | 0.619 | 0.679 | 0.719 | 0.174 | 0.492
8 | C=CCn1c(=O)c2cnc(Nc3ccc(N4CCN(C)CC4)cc3)nc2n1-c1cccc(C(C)(C)O)n1 [AZD1775] + C[C@@H]1COCCN1C2=NC(=NC(=C2)C3(CC3)[S@](=N)(=O)C)C4=C5C=CNC5=NC=C4 [AZD6738] (first compound max 1 µM, partner max 10 µM) | 0.906 | 0.504 | 0.457 | 0.696 | 0.681 | 0.764 |  | 0.785 | 0.922 | 0.764 | 0.936 | 0.803 | 0.849 | 1 | 0.706 | 0.637 | 0.759 | 0.943 | 0.129 | 0.56
9 | C=CCn1c(=O)c2cnc(Nc3ccc(N4CCN(C)CC4)cc3)nc2n1-c1cccc(C(C)(C)O)n1 [AZD1775] + CCc1c2c(nc3ccc(O)cc13)-c1cc3c(c(=O)n1C2)COC(=O)[C@]3(O)CC [SN-38] (first compound max 1 µM, partner max 0.3 µM) | 0.943 |  |  | 0.836 | 0.589 | 0.702 | 0.917 |  | 1 | 0.699 |  | 0.779 | 0.748 | 0.997 |  | 0.62 | 0.843 | 0.966 |  | 0.607
10 | CCc1c2c(nc3ccc(O)cc13)-c1cc3c(c(=O)n1C2)COC(=O)[C@]3(O)CC [SN-38] + O=C(c1cc(Cc2n[nH]c(=O)c3ccccc23)ccc1F)N1CCN(C(=O)C2CC2)CC1 [Olaparib] (first compound max 0.3 µM, 7x7, partner max 10 µM) | 0.852 |  | 1 | 0.727 | 0.627 | 0.639 | 0.998 | 0.24 | 1 | 0.18 | 0.801 | 0.771 | 0.692 | 0.967 | 0.542 | 0.758 | 0.788 | 0.86 | 0.662 | 0.48
11 | Cc1nc(-c2cn3c(n2)-c2ccc(-c4cnn(C(C)(C)C(N)=O)c4)cc2OCC3)n(C(C)C)n1 [Taselisib] + O=C(Nc1ccc2[nH]nc(-c3ccncc3)c2c1)[C@@H]1CCN(CC(=O)N2CCN(c3ccc(-c4ncccn4)cc3)CC2)C1 [SCH772984] (first compound max 10 µM, 7x7, partner max 5 µM) | 0.871 |  |  | 0.4 | 0.843 | 0.6 | 0.716 |  | 1 | 0.619 |  | 1 | 0.716 | 0.697 |  | 0.531 | 0.816 | 0.961 |  | 0.921
12 | CS(=O)(=O)CCNCc1ccc(-c2ccc3ncnc(Nc4ccc(OCc5cccc(F)c5)c(Cl)c4)c3c2)o1 [Lapatinib] + Cn1cnc2c(F)c(Nc3ccc(Br)cc3Cl)c(C(=O)NOCCO)cc21 [Selumetinib] (first compound max 10 µM, 7x7, partner max 10 µM) | 0.76 |  |  | 0.335 | 0.542 | 0.488 | 0.462 |  | 0.974 | 0.345 |  | 0.893 | 0.425 | 0.898 |  | 0.646 | 0.559 | 0.763 |  | 0.868
13 | CS(=O)(=O)CCNCc1ccc(-c2ccc3ncnc(Nc4ccc(OCc5cccc(F)c5)c(Cl)c4)c3c2)o1 [Lapatinib] + NC1(c2ccc(-c3nc4ccn5c(=O)[nH]nc5c4cc3-c3ccccc3)cc2)CCC1 [MK-2206] (first compound max 10 µM, 7x7, partner max 10 µM) | 0.953 |  |  | 0.475 | 0.929 | 0.495 | 0.766 |  | 1 | 0.512 |  | 0.948 | 0.956 | 0.941 | 0.898 | 0.739 | 0.921 | 0.931 | 0.311 | 0.901
